Source: ChEMBL document CHEMBL3769380, “New Synthetic Routes to Triazolo-benzodiazepine Analogues: Expanding the Scope of the Bump-and-Hole Approach for Selective Bromo and Extra-Terminal (BET) Bromodomain Inhibition” (J Med Chem, 2016)
pKd: −log10 of the molar value.

Tests used:
[1] = tested on: DH5-alpha; assay: Selectivity ratio of Kd for N-terminal His6-tagged BRD2 bromodomain 1 (unknown origin) expressed in competent Escherichia coli BL21(DE3) cells to Kd for BRD2 bromodomain 1 L110A mutant (unknown origin) expressed in competent Escherichia coli DH5-alpha cells; conditions: Homo sapiens
[2] = tested on: DH5-alpha; assay: Selectivity ratio of Kd for N-terminal His6-tagged BRD2 bromodomain 2 (unknown origin) expressed in competent Escherichia coli BL21(DE3) cells to Kd for BRD2 bromodomain 2 L383A mutant (unknown origin) expressed in competent Escherichia coli DH5-alpha cells; conditions: Homo sapiens
[3] = tested on: DH5-alpha; assay: Selectivity ratio for BRD2 bromodomain 1 L110A mutant (unknown origin) expressed in competent Escherichia coli DH5-alpha cells over N-terminal His6-tagged BRD2 bromodomain 1 (unknown origin) expressed in competent Escherichia coli BL21(DE3) cells by differential scanning fluorimetry; conditions: Homo sapiens
[4] = tested on: DH5-alpha; assay: Selectivity ratio for BRD2 bromodomain 2 L383A mutant (unknown origin) expressed in competent Escherichia coli DH5-alpha cells over N-terminal His6-tagged BRD2 bromodomain 2 (unknown origin) expressed in competent Escherichia coli BL21(DE3) cells by differential scanning fluorimetry; conditions: Homo sapiens
[5] = molecular target: T1, Bromodomain-containing protein 2 (Homo sapiens, UniProt P25440); assay: Binding affinity to recombinant poly-His-tagged BRD2 bromodomain 2 (unknown origin) by isothermal titration calorimetry
T1 sequence (P25440 whole entry): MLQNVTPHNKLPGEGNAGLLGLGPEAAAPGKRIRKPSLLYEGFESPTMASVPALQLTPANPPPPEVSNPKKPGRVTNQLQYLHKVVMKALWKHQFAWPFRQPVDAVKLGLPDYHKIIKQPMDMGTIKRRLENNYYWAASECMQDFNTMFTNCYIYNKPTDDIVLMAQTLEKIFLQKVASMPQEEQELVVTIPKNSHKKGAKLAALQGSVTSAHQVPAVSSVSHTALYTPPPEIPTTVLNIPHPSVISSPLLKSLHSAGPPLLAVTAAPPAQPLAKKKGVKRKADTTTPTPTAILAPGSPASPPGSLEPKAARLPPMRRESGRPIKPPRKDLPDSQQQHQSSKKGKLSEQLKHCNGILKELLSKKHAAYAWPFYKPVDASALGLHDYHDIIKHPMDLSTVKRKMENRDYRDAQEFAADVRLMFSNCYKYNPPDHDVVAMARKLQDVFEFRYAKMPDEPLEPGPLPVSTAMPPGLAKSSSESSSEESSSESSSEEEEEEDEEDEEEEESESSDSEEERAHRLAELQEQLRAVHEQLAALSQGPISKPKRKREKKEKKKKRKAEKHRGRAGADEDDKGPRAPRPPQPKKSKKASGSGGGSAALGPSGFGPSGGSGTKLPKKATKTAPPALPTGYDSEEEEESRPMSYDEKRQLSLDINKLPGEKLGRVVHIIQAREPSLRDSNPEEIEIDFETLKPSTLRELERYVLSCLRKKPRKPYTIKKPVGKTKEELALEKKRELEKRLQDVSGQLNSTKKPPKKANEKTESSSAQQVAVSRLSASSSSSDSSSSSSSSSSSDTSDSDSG

[6] = molecular target: T1, Bromodomain-containing protein 2; assay: Binding affinity to recombinant poly-His-tagged BRD2 bromodomain 1 (unknown origin) by isothermal titration calorimetry

CC[C@@H](C(=O)OC)[C@@H]1N=C(c2ccc(Cl)cc2)c2cc(OC)ccc2-n2c(C)nnc21
Selectivity ratio [1]: < 540 | Selectivity ratio [2]: < 540 | Selectivity ratio [3]: < 540 | Selectivity ratio [4]: < 540

CC(=O)NCCCCn1c2c(c3ccccc31)C(=O)NCC2
pKd [5]: < 3.52 | pKd [6]: 5.07
